For this experiment, the system named is P388 leukemia ip, CD2F1 mice, survival T/C. As to the kind of experiment: NCI In Vivo Anticancer Drug Screen. Data for tumor model P388 Leukemia (intraperitoneal) in CD2F1 (CDF1) mice. The settings on record: endpoint: median survival time, higher = longer survival. The gist of the method:
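Mice carrying the transplanted tumor received test compound or vehicle. Survival was recorded in each group, and the value is the treated-group measurement divided by that of the vehicle-treated control group.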

The mark [1] stands for this setting: dose: 12.5 mg/kg/injection, schedule: Q01DX009 (ip), vehicle: Klucel (hydroxypropylcellulose) (HPC).
Setting [2] is: dose: 25.0 mg/kg/injection, schedule: Q01DX009 (ip), vehicle: Klucel (hydroxypropylcellulose) (HPC).
Where [3] appears, read: dose: 50.0 mg/kg/injection, schedule: Q01DX009 (ip), vehicle: Klucel (hydroxypropylcellulose) (HPC).
The mark [4] stands for this setting: dose: 200.0 mg/kg/injection, schedule: Q04DX003 (ip), vehicle: Klucel (hydroxypropylcellulose) (HPC).
The mark [5] stands for this setting: dose: 12.5 mg/kg/injection, schedule: Q01DX009 (ip), vehicle: saline.
Setting [6] is: dose: 25.0 mg/kg/injection, schedule: Q01DX009 (ip), vehicle: saline.
Where [7] appears, read: dose: 50.0 mg/kg/injection, schedule: Q01DX009 (ip), vehicle: saline.
Setting [8] is: dose: 100.0 mg/kg/injection, schedule: Q01DX009 (ip), vehicle: saline.
Setting [9] is: dose: 200.0 mg/kg/injection, schedule: Q01DX009 (ip), vehicle: saline.
The mark [10] stands for this setting: dose: 60.0 mg/kg/injection, schedule: Q01DX005 (ip), vehicle: Klucel (hydroxypropylcellulose) (HPC).
Setting [11] is: dose: 120.0 mg/kg/injection, schedule: Q01DX005 (ip), vehicle: Klucel (hydroxypropylcellulose) (HPC).
[12] abbreviates: dose: 240.0 mg/kg/injection, schedule: Q01DX005 (ip), vehicle: Klucel (hydroxypropylcellulose) (HPC).
The mark [13] stands for this setting: dose: 6.25 mg/kg/injection, schedule: Q04DX002 (ip), vehicle: saline.
Setting [14] is: dose: 12.5 mg/kg/injection, schedule: Q04DX002 (ip), vehicle: saline.

The source of these data is PubChem BioAssay AID330 (DTP/NCI, 2004).

“And” between values parts separate entries of the source, which are not always exact repeats. Equal values may be shown once. Inconclusive results and toxic doses are left out.

With `Cc1ccc(OP(=O)(Oc2ccc(C)cc2)Oc2ccc(C)cc2)cc1.Cc1ccc(OP(=O)(Oc2ccc(C)cc2)Oc2ccc(C)cc2)cc1.Cc1ccc(OP(=O)(Oc2ccc(C)cc2)Oc2ccc(C)cc2)cc1.Cc1ccc(OP(=O)(Oc2ccc(C)cc2)Oc2cccc(C)c2)cc1.[Cd+2].[O-][Cl+3]([O-])([O-])O`, the T/C is, setting by setting: under setting [1], 95 % of control; under setting [2], 96 % of control; under setting [3], 93 % of control and 96 % of control.
`CCOC(=O)C12CCCC1=NN=C2C1=NN=C2CCCC21C(=O)OCC` (stereo not drawn): the T/C by setting is: (dose: 60.0 mg/kg/injection, schedule: Q01DX005 (ip), vehicle: saline) 103 % of control; (dose: 120.0 mg/kg/injection, schedule: Q01DX005 (ip), vehicle: saline) 98 % of control; (dose: 240.0 mg/kg/injection, schedule: Q01DX005 (ip), vehicle: saline) 101 % of control.
As for `CC(=O)SCC1C(=O)CC(C)(C)CC1=O`, the T/C under setting [4] was 89 % of control.
Turning to `CN1C2CCC1CC(OC(=O)CBr)C2` (stereo not drawn), the T/C runs as follows: under setting [5], 115 % of control; under setting [6], 107 % of control; under setting [7], 117 % of control and 120 % of control.
As for `Cc1cc(Nc2ccc(C(=O)N/N=C/c3ccc(N(CCCl)CCCl)cc3)cc2)nc2ccc(Cl)cc12`, the T/C was 90 % of control under setting [7], 91 % of control under setting [8] and 87 % of control under setting [9].
Take `Cc1cc(O)c2c(c1)C(=O)c1cc(O)cc(OC3OC(CO)C(O)C(O)C3O)c1C2=O` (stereo not drawn): the T/C runs as follows: (dose: 5.0 mg/kg/injection, schedule: Q01DX009 (ip), vehicle: saline) 105 % of control; (dose: 10.0 mg/kg/injection, schedule: Q01DX009 (ip), vehicle: saline) 105 % of control; (dose: 20.0 mg/kg/injection, schedule: Q01DX009 (ip), vehicle: saline) 89 % of control.
As to `Cc1cc(C)nc(NS(=O)(=O)c2ccc(NC(=O)NCCCl)cc2)n1`, the T/C is 106 % of control (dose: 30.0 mg/kg/injection, schedule: Q01DX005 (ip), vehicle: Klucel (hydroxypropylcellulose) (HPC)); 107 % of control under setting [10]; 100 % of control under setting [11]; 114 % of control under setting [12].
For `O=S(CF)c1ccc(Cl)cc1` (stereo not drawn), the T/C (dose: 100.0 mg/kg/injection, schedule: Q04DX003 (ip), vehicle: saline with Tween-80) is 93 % of control; the T/C (dose: 200.0 mg/kg/injection, schedule: Q04DX003 (ip), vehicle: saline with Tween-80) is 102 % of control; the T/C (dose: 400.0 mg/kg/injection, schedule: Q04DX003 (ip), vehicle: saline with Tween-80) was 107 % of control.
Regarding `O=C(O)C(=O)O.[NH-]CCC[NH-].[Pt+2]`, the T/C by setting is: (dose: 0.63 mg/kg/injection, schedule: Q04DX003 (ip), vehicle: other) 88 % of control; (dose: 2.5 mg/kg/injection, schedule: Q04DX003 (ip), vehicle: other) 153 % of control; (dose: 5.0 mg/kg/injection, schedule: Q04DX003 (ip), vehicle: other) 160 % of control; under setting [13], 158 % of control; under setting [14], 203 % of control.
In the case of `CC1OC1C(=O)C1(O)C(C)C(O)C23OC2(C(O)c2c(O)cccc2C3=O)C1O` (stereo not drawn), the T/C is, setting by setting: (dose: 1.0 mg/kg/injection, schedule: Q01DX009 (ip), vehicle: Klucel (hydroxypropylcellulose) (HPC)) 104 % of control and 118 % of control; (dose: 2.0 mg/kg/injection, schedule: Q01DX009 (ip), vehicle: Klucel (hydroxypropylcellulose) (HPC)) 154 % of control; (dose: 4.0 mg/kg/injection, schedule: Q01DX009 (ip), vehicle: Klucel (hydroxypropylcellulose) (HPC)) 121 % of control.
Take `COc1cccc2c1C(=O)OC2=O`: the T/C is, setting by setting: under setting [1], 105 % of control; under setting [2], 105 % of control; under setting [3], 112 % of control; (dose: 100.0 mg/kg/injection, schedule: Q01DX009 (ip), vehicle: Klucel (hydroxypropylcellulose) (HPC)) 97 % of control; (dose: 200.0 mg/kg/injection, schedule: Q01DX009 (ip), vehicle: Klucel (hydroxypropylcellulose) (HPC)) 96 % of control.
Turning to `CCO/C(=N/S(C)(=O)=O)NO`, the T/C is 102 % of control (dose: 50.0 mg/kg/injection, schedule: Q01DX005 (ip), vehicle: Klucel (hydroxypropylcellulose) (HPC)); 106 % of control (dose: 100.0 mg/kg/injection, schedule: Q01DX005 (ip), vehicle: Klucel (hydroxypropylcellulose) (HPC)); 102 % of control (dose: 200.0 mg/kg/injection, schedule: Q01DX005 (ip), vehicle: Klucel (hydroxypropylcellulose) (HPC)).
With `CC[N+](CC)(CC)c1ccccc1`, the T/C under setting [13] was 105 % of control; the T/C under setting [14] is 111 % of control; the T/C (dose: 25.0 mg/kg/injection, schedule: Q04DX002 (ip), vehicle: saline) was 100 % of control and 104 % of control.
On to `CC1=CC(O)(c2ccccn2)P(=O)(c2ccccc2)C=C1C` (stereo not drawn), for which the T/C was 115 % of control under setting [10], 111 % of control under setting [11] and 99 % of control under setting [12].
As to `O=[N+]([O-])c1ccc(-[n+]2ccc3ccccc3c2)c([N+](=O)[O-])c1`, the T/C runs as follows: (dose: 12.5 mg/kg/injection, schedule: Q01DX005 (ip), vehicle: saline) 110 % of control; (dose: 25.0 mg/kg/injection, schedule: Q01DX005 (ip), vehicle: saline) 106 % of control; (dose: 50.0 mg/kg/injection, schedule: Q01DX005 (ip), vehicle: saline) 104 % of control and 111 % of control.
Take `COc1cc2c3c(n(C)c(=O)c2cc1OC)-c1cc2c(cc1C3=O)OCO2`: the T/C reads like this: (dose: 2.0 mg/kg/injection, schedule: Q01DX009 (ip), vehicle: distilled water + Tween-80) 98 % of control; (dose: 4.0 mg/kg/injection, schedule: Q01DX009 (ip), vehicle: distilled water + Tween-80) 100 % of control; (dose: 8.0 mg/kg/injection, schedule: Q01DX009 (ip), vehicle: distilled water + Tween-80) 107 % of control; (dose: 16.0 mg/kg/injection, schedule: Q01DX009 (ip), vehicle: distilled water + Tween-80) 98 % of control; (dose: 32.0 mg/kg/injection, schedule: Q01DX009 (ip), vehicle: distilled water + Tween-80) 100 % of control; (dose: 64.0 mg/kg/injection, schedule: Q01DX009 (ip), vehicle: distilled water + Tween-80) 99 % of control and 109 % of control. For the same compound, the T/C by setting is: (dose: 128.0 mg/kg/injection, schedule: Q01DX009 (ip), vehicle: distilled water + Tween-80) 111 % of control and 123 % of control; (dose: 256.0 mg/kg/injection, schedule: Q01DX009 (ip), vehicle: distilled water + Tween-80) 100 % of control and 92 % of control.
Consider `CC(=O)CC(C)c1ccc(C(C)CC(C)=O)o1` (stereo not drawn), for which the T/C (dose: 60.0 mg/kg/injection, schedule: Q01DX005 (ip), vehicle: saline with Tween-80) is 104 % of control; the T/C (dose: 120.0 mg/kg/injection, schedule: Q01DX005 (ip), vehicle: saline with Tween-80) is 106 % of control; the T/C (dose: 240.0 mg/kg/injection, schedule: Q01DX005 (ip), vehicle: saline with Tween-80) is 104 % of control.
Take `C=C[C@H]1[C@H](OC2OC(CO)C(O)C(O)C2O)OC=C2C(=O)OCC[C@H]21` (stereo partly drawn): the T/C was 95 % of control (dose: 0.75 mg/kg/injection, schedule: Q01DX005 (ip), vehicle: water); 95 % of control (dose: 1.5 mg/kg/injection, schedule: Q01DX005 (ip), vehicle: water); 93 % of control (dose: 3.0 mg/kg/injection, schedule: Q01DX005 (ip), vehicle: water); 93 % of control (dose: 6.0 mg/kg/injection, schedule: Q01DX005 (ip), vehicle: water).
In the case of `CC(N)C(=O)NC(CC(=O)O)C(=O)O` (stereo not drawn), the T/C by setting is: under setting [5], 95 % of control; under setting [6], 86 % of control; under setting [7], 90 % of control; under setting [8], 94 % of control; under setting [9], 92 % of control.
For the compound `O=c1cnn2c(n1)OC1C(O)C(CO)OC12` (stereo not drawn), the T/C reads like this: (dose: 50.0 mg/kg/injection, schedule: Q01DX009 (ip), vehicle: saline with Tween-80) 97 % of control; (dose: 100.0 mg/kg/injection, schedule: Q01DX009 (ip), vehicle: saline with Tween-80) 97 % of control; (dose: 200.0 mg/kg/injection, schedule: Q01DX009 (ip), vehicle: saline with Tween-80) 93 % of control.
For `C[C@@H]1C[C@@]2(C)[C@@H](CC[C@@H]3[C@@H]2CC[C@]2(C)[C@@H](O)CC[C@@H]32)CC1=O`, the T/C was 100 % of control (dose: 100.0 mg/kg/injection, schedule: Q04DX003 (ip), vehicle: Klucel (hydroxypropylcellulose) (HPC)) and 100 % of control under setting [4].
